Measured values: patent publication US9187429B2, “Phenyl-tetrahydroisoquinoline derivatives” (Hoffmann-La Roche Inc., priority 2012, dated 2015)
pEC50: −log10 of the molar value.

Key:
human CYP11B1 = human CYP11B1 (Homo sapiens (Human), UniProt P15538); test: G-402 cellular enzyme assay, human CYP11B1 (cortisol release); format: cell-based; settings: G-402 cells expressing human CYP11B1, 1 μM Deoxycortisol
Description: (§1) The expression plasmids contains the ORF for either human/cyno CYP11B1 or CYP11B2 under the control of a suitable promoter (CMV-promoter) and a suitable resistance marker (neomycin). Using standard techniques the expression plasmid is transfected into G-402 cells and these cells are then selected for expressing the given resistance markers. Individual cell-clones are then selected and assessed for displaying the desired enzymatic activity using 11-Deoxycorticosterone (Cyp 11B2) or 11-Deoxycortisol (Cyp 11B1) as a substrate.
(§2) G-402 cells expressing CYP11 constructs were established as described above and maintained in McCoy's 5a Medium Modified, ATCC Catalog No. 30-2007 containing 10% FCS and 400 μg/ml G418 (Geneticin) at 37° C. under an atmosphere of 5% CO2/95% air. […] For assaying enzymatic activity, cells were plated onto 96 well plates and incubated for 16 h. An aliquot of the supernatant is then transferred and analyzed for the concentration of the expected product (Aldosterone for CYP11B2; Cortisol for CYP11B1). The concentrations of these steroids can be determined using HTRF assays from CisBio analyzing either Aldosterone or Cortisol.
(§3) Inhibition of the release of produced steroids can be used as a measure of the respective enzyme inhibition by test compounds added during the cellular enzyme assay. The dose dependent inhibition of enzymatic activity by a compound is calculated by means of plotting added inhibitor concentrations (x-axes) vs. measured steroid/product level (y-axes). The inhibition is then calculated by fitting the following 4-parameter sigmoidal function (Morgan-Mercer-Flodin (MMF) model) to the raw data points using the least squares method:
(§4) [formula] wherein, A is the maximum y value, B is the EC50 factor determined using XLFit, C is the minimum y value and D is the slope value.
(§5) EC50 values for compounds claimed herein were tested with the G402-based assay system described. Cyp 11B2 enzyme activity was tested in presence of 1 μM Deoxycorticosterone and variable amounts of inhibitors; Cyp 11B1 enzyme activity was tested in presence of 1 μM Deoxycortisol and variable amounts of inhibitors.

CYP11B2 = CYP11B2 (Homo sapiens (Human), UniProt P19099); test: G-402 cellular enzyme assay, human CYP11B2 (aldosterone release); format: cell-based; settings: G-402 cells expressing human CYP11B2, 1 μM Deoxycorticosterone
CYP11B2, sequence (P19099 25-503): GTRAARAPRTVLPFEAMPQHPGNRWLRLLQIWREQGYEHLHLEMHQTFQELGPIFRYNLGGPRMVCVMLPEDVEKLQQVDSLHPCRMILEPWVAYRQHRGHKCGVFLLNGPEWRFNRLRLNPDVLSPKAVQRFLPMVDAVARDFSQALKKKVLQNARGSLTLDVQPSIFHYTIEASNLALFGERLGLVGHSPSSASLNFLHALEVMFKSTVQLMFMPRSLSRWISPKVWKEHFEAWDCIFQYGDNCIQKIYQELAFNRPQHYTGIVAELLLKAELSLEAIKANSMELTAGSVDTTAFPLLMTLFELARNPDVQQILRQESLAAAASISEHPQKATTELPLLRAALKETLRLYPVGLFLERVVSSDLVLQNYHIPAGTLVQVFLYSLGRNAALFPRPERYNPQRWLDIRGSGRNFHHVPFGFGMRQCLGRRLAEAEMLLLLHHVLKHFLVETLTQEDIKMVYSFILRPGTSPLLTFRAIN
Description: as §1, §2, §3, §4, §5

human CYP11B1, sequence (P15538 25-503): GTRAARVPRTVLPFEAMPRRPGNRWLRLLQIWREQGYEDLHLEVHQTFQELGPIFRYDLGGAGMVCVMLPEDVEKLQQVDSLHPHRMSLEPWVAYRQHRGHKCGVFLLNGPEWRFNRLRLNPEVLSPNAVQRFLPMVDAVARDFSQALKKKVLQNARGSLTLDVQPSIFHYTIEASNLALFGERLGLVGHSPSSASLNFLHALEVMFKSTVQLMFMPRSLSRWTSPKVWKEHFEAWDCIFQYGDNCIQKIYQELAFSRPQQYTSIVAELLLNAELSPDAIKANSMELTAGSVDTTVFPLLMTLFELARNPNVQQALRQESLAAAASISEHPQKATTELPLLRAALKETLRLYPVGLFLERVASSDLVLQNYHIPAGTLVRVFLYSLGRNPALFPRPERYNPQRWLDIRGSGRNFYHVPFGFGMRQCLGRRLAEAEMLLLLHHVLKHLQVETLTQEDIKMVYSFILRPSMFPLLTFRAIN

Row | SMILES | pEC50 (human CYP11B1) | pEC50 (CYP11B2)
1 | CCC(=O)N[C@@H]1c2cncc(-c3ccc(C(F)(F)F)cc3)c2CC[C@@H]1C (single isomer, unassigned) [Example 68, N-[(7S,8S or 7R,8R)-7-Methyl-4-(4-trifluoromethyl-phenyl)-5,6,7,8-tetrahydro-isoquinolin-8-yl]-propionamide] | 4.97 | 6.18
2 | CCC(=O)N[C@H]1c2cncc(-c3ccc(C(F)(F)F)cc3)c2CC[C@@H]1C (single isomer, unassigned) [Example 69, N-[(7S,8R or 7R,8S)-7-Methyl-4-(4-trifluoromethyl-phenyl)-5,6,7,8-tetrahydro-isoquinolin-8-yl]-propionamide] | 6.13 | 7.96
3 | CCC(=O)N[C@H]1c2cncc(-c3ccc(C(F)(F)F)cc3)c2CC[C@H]1C (single isomer, unassigned) [Example 70, N-[(7R,8R or 7S,8S)-7-Methyl-4-(4-trifluoromethyl-phenyl)-5,6,7,8-tetrahydro-isoquinolin-8-yl]-propionamide] | 5.52 | 7.38
4 | Cc1ccc(C2(O)CCCc3c(-c4ccc(C#N)cc4)cncc32)cc1C (single isomer, unassigned; (+)) [Example 15, (+)-(S or R)-4-(8-(3,4-Dimethylphenyl)-8-hydroxy-5,6,7,8-tetrahydroisoquinolin-4-yl)benzonitrile] | 7.68 | 8.30
5 | CCC(=O)NC1CCc2c(-c3ccc(C#N)cc3)cncc21 (single isomer, unassigned; (+)) [Example 19, (+)-(R or S)—N-(4-(4-Cyanophenyl)-6,7-dihydro-5H-cyclopenta[c]pyridin-7-yl)propionamide] | 6.76 | 7.92
6 | CCC(=O)NC1CCCc2c(-c3ccc(C(F)(F)F)cc3)cncc21 (single isomer, unassigned; (+)) [Example 23, (+)-(R or S)—N-(4-(4-(Trifluoromethyl)phenyl)-5,6,7,8-tetrahydroisoquinolin-8-yl)propionamide] | 5.43 | 7.51
7 | CCC(=O)NC1CCCc2c(-c3ccc(Cl)cc3)cncc21 (single isomer, unassigned; (+)) [Example 26, (+)-(R or S)—N-(4-(4-Chlorophenyl)-5,6,7,8-tetrahydroisoquinolin-8-yl)propionamide] | 6.30 | 7.77
8 | CCC(=O)NC1CCCc2c(-c3ccc(F)c(C)c3)cncc21 (single isomer, unassigned; (+)) [Example 29, (+)-(R or S)—N-(4-(4-fluoro-3-methylphenyl)-5,6,7,8-tetrahydroisoquinolin-8-yl)propionamide] | 6.62 | 8.40
9 | CCC(=O)NC1CCCc2c(-c3ccc(Cl)cc3F)cncc21 (single isomer, unassigned; (+)) [Example 32, (+)-(R or S)—N-(4-(4-Chloro-2-fluorophenyl)-5,6,7,8-tetrahydroisoquinolin-8-yl)propionamide] | 6.21 | 7.72
10 | CCC(=O)NC1CCCc2c(-c3ccc(C(F)(F)F)cc3F)cncc21 (single isomer, unassigned; (+)) [Example 35, (+)-(R or S)—N-(4-(2-Fluoro-4-(trifluoromethyl)phenyl)-5,6,7,8-tetrahydroisoquinolin-8-yl)propionamide] | 5.18 | 7.15
11 | CCC(=O)NC1CCCc2c(-c3ccc(Cl)c(F)c3)cncc21 (single isomer, unassigned; (+)) [Example 38, (+)-(R or S)—N-(4-(4-Chloro-3-fluorophenyl)-5,6,7,8-tetrahydroisoquinolin-8-yl)propionamide] | 6.67 | 8.15
12 | CCC(=O)NC1CCCc2c(-c3ccc(C(F)(F)F)c(F)c3)cncc21 (single isomer, unassigned; (+)) [Example 41, (+)-(R or S)—N-(4-(3-Fluoro-4-(trifluoromethyl)phenyl)-5,6,7,8-tetrahydroisoquinolin-8-yl)propionamide] | 5.74 | 7.80
